Experimental data from publication PMC9104950, “Stereoselective Covalent Adduct Formation of Acyl Glucuronide Metabolite of Nonsteroidal Anti-Inflammatory Drugs with UDP-Glucuronosyltransferase” (International Journal of Molecular Sciences, 2022).

Columns and labels:
[1] = tested on: proteins of Cyt (cytosolic fraction of liver homogenate); experiment: Covalent adduct formation of NSAIDs-AG with proteins of cytosolic fraction (Cyt); format: binding, rat; conditions: 180 μM, 1 mg/mL, 6 h
[2] = tested on: proteins of Mit (mitochondrial fraction of liver homogenate); experiment: Covalent adduct formation of NSAIDs-AG with proteins of mitochondrial fraction (Mit); format: binding, rat; conditions: 180 μM, 1 mg/mL, 6 h
[3] = tested on: proteins of Nuc (nuclear fraction of liver homogenate); experiment: Covalent adduct formation of NSAIDs-AG with proteins of nuclear fraction (Nuc); format: binding, rat; conditions: 180 μM, 1 mg/mL, 6 h
UGT1A1 = target: T1, UGT1A1 (Homo sapiens, UniProt P22309); experiment: Covalent adduct formation of NSAIDs-AG with UGT1A1; format: binding; conditions: R vs S diastereomer; 180 μM, UGT 3.4 μM, 6 h
T1 construct: purchased Corning, Inc
T1 sequence (P22309 26-533): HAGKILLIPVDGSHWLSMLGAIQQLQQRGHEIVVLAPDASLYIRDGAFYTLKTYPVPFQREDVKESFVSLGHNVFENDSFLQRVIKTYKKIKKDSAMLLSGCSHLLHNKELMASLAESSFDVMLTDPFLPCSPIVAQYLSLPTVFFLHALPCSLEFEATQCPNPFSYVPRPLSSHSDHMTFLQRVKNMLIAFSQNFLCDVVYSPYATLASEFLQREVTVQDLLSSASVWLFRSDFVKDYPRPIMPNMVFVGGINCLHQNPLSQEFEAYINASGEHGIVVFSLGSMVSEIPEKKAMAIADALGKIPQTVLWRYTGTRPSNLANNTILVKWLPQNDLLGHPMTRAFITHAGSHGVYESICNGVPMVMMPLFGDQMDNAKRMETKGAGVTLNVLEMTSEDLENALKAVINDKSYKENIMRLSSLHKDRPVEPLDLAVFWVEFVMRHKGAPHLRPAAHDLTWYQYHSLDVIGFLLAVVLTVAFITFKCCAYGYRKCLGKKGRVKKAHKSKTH
Protocol: The concentrations of UGT were set at 3.4 μM by the preliminary experiments on the linearity of covalent adduct formation. The covalent adduct formation of NSAIDs-AG with organelle proteins and UGT was determined according to previous reports on NSAIDs-AG with albumin with some modifications. After a deproteinization of the reaction mixture, methanol/diethyl ether (3:1) was added to the pellet. […] The concentrations of the parent NSAIDs were measured using liquid chromatography-tandem mass spectrometry (LC-MS/MS). Aliquots of 10 μL were injected into the LC-MS/MS system. The LC-MS/MS equipment consisted of an LC system (UltiMate 3000 series, Thermo Fisher Scientific, Inc.) and TSQ Endura Triple Quadrupole Mass Spectrometer with electrospray ionization (Thermo Fisher Scientific, Inc.). Finnigan Xcalibur software (Thermo Fisher Scientific, Inc.) was used for data recording and analysis. Analysis was further performed using a reversed-phase column (COSMOSIL 5C18-MSII, 2.0 mm × 150 mm, 5 μm; Nacalai Tesque, Inc.). The column temperature was set to 40 °C, and the autosampler was maintained at 10 °C. The mobile phase (A; 30% methanol in 8.5 mM ammonium formate and 0.0075% formic acid, and B; 90% methanol in 8.5 mM ammonium formate and 0.0075% formic acid) was pumped at a flow rate of 0.2 mL/min. The initial mobile phase composition was maintained at 30% mobile phase B for 1 min, changed linearly to 90% mobile phase B from 1 to 8 min, maintained for 1 min, returned to 30% mobile phase B from 9 to 10 min, and maintained for 1 min for chromatographic column equilibrium. The MS scan was operated in positive ionization mode for DIC, MEF, ZOM, KET, and NAP, or negative ionization mode, for FLU. […] The concentrations of NSAIDs were determined from a single-point calibration in every assay for NSAIDs after confirmation of linearity between area and concentrations of NSAIDs.

UGT2B4 = target: T2, UGT2B4 (Homo sapiens, UniProt P06133); experiment: Covalent adduct formation of NSAIDs-AG with UGT2B4; format: binding; conditions: 180 μM, UGT 3.4 μM, 6 h
T2 construct: purchased Corning, Inc
T2 sequence (P06133 24-528): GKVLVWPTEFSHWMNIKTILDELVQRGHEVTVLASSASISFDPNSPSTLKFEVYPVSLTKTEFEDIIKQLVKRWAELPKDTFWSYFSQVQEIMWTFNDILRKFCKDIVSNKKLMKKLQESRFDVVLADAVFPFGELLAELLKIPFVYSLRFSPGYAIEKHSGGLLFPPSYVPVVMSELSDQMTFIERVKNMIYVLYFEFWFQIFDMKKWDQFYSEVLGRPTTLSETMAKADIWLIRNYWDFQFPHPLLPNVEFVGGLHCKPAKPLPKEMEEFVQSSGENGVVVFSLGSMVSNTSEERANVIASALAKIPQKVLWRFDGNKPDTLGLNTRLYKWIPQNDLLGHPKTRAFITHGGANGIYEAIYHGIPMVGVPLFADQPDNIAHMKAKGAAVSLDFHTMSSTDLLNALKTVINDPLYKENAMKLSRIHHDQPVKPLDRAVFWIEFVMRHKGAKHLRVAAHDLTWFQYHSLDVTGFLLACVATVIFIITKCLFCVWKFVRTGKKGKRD
Protocol: (§1) The concentrations of UGT were set at 3.4 μM by the preliminary experiments on the linearity of covalent adduct formation. The covalent adduct formation of NSAIDs-AG with organelle proteins and UGT was determined according to previous reports on NSAIDs-AG with albumin with some modifications. After a deproteinization of the reaction mixture, methanol/diethyl ether (3:1) was added to the pellet. […] The concentrations of the parent NSAIDs were measured using liquid chromatography-tandem mass spectrometry (LC-MS/MS). Aliquots of 10 μL were injected into the LC-MS/MS system. The LC-MS/MS equipment consisted of an LC system (UltiMate 3000 series, Thermo Fisher Scientific, Inc.) and TSQ Endura Triple Quadrupole Mass Spectrometer with electrospray ionization (Thermo Fisher Scientific, Inc.). Finnigan Xcalibur software (Thermo Fisher Scientific, Inc.) was used for data recording and analysis. Analysis was further performed using a reversed-phase column (COSMOSIL 5C18-MSII, 2.0 mm × 150 mm, 5 μm; Nacalai Tesque, Inc.). The column temperature was set to 40 °C, and the autosampler was maintained at 10 °C. The mobile phase (A; 30% methanol in 8.5 mM ammonium formate and 0.0075% formic acid, and B; 90% methanol in 8.5 mM ammonium formate and 0.0075% formic acid) was pumped at a flow rate of 0.2 mL/min. The initial mobile phase composition was maintained at 30% mobile phase B for 1 min, changed linearly to 90% mobile phase B from 1 to 8 min, maintained for 1 min, returned to 30% mobile phase B from 9 to 10 min, and maintained for 1 min for chromatographic column equilibrium. The MS scan was operated in positive ionization mode for DIC, MEF, ZOM, KET, and NAP, or negative ionization mode, for FLU. The conditions for electrospray ionization were set at 3500 V spray voltage for positive ionization mode and 2500 V spray voltage for negative ionization mode at 400 °C capillary temperature, and 300 °C vaporizer temperature with 40 arbitrary units of nitrogen sheath gas and 10 arbitrary units of auxiliary gas. The MS scan was operated in the positive or negative ionization mode. The selected reaction monitoring (SRM) mode was used, with argon as the collision gas at 1.5 mTorr. The mass resolution was set at 0.7 full-width at half-height (unit resolution). SRM transitions (precursor and product ions) were mass to charge ratios of (m/z) 296 > 214 for DIC (positive ionization mode), 294 > 250 for DIC (negative ionization mode), 242 > 224 for MEF, 292 > 139 for ZOM, 243 > 198 for R- and S-FLU, 255 > 209 for R- and S-KET, 231 > 185 for R- and S-NAP, and 302 > 220 for DIC-d4. The collision energies were 15 V for DIC (negative ionization mode), ZOM, MEF, FLU, KET, and NAP; 35 V for DIC (positive ionization mode); and DIC-d4. The concentrations of NSAIDs were determined from a single-point calibration in every assay for NSAIDs after confirmation of linearity between area and concentrations of NSAIDs.

UGT2B7 = target: T3, UGT2B7 (Homo sapiens, UniProt P16662); experiment: Covalent adduct formation of NSAIDs-AG with UGT2B7; format: binding; conditions: 180 μM, UGT 3.4 μM, 6 h
T3 construct: purchased Corning, Inc
T3 sequence (P16662 24-529): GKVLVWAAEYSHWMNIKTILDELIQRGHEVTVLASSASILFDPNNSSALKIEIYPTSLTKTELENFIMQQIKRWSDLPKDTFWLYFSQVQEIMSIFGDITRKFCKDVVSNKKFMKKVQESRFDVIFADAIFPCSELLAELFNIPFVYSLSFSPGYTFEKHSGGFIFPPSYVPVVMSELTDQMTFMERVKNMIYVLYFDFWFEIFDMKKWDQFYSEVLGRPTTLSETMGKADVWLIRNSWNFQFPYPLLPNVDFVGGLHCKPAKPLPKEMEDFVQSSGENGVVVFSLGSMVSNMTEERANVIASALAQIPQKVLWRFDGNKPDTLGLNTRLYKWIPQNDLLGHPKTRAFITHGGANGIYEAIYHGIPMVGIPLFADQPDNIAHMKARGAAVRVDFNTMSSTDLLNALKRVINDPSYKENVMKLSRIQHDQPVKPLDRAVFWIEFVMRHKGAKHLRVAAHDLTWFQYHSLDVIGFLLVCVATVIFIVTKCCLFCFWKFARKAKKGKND
Protocol: as §1

[4] = design: method as in PMID 1642643; conditions: plasma at physiological pH and temperature; cited from earlier work
[5] = design: method as in PMID 9571227; conditions: cited from earlier work

amount of covalent adducts with Cyt proteins compared with the other diastereomer (S-KET-AG) [1]: higher amounts of covalent adducts | amount of covalent adducts with Mit proteins compared with the other diastereomer (S-KET-AG) [2]: higher amounts of covalent adducts | amount of covalent adducts with Nuc proteins compared with the other diastereomer (S-KET-AG) [3]: higher amounts of covalent adducts | covalent adduct formation with UGT1A1 compared with the other diastereomer (UGT1A1): significantly more covalent adducts | covalent adduct formation with UGT2B4 compared with the other diastereomer (UGT2B4; R vs S diastereomer): significantly more covalent adducts | covalent adduct formation with UGT2B7 compared with the other diastereomer (UGT2B7; R vs S diastereomer): significantly more covalent adducts
Structure (SMILES): CC(C(=O)OC1OC(C(=O)O)C(O)C(O)C1O)c1cccc(C(=O)c2ccccc2)c1 (stereo not shown) [R-KET-AG]
amounts of covalent adducts with UGT2B (UGT2B4) relative to UGT1A isoforms (UGT2B4): relatively higher amounts of covalent adducts | amounts of covalent adducts with UGT2B (UGT2B7) relative to UGT1A isoforms (UGT2B7): relatively higher amounts of covalent adducts | hydrolysis half-life in plasma compared with S-KET-AG [4]: shorter | acyl migration rate compared with S-KET-AG [5]: higher acyl migration rate
